Test results: US9463193B2, “Individual 5-fluorouracile dose optimization in folfiri treatment” (INSTITUT DE CANCEROLOGIE DE L'OUEST, priority 2008, dated 2016)

What was measured:
[1] = human, in vivo
Procedure: A total of 90 patients were studied. All were treated for advanced colorectal cancer following treatment including irinotecan, fluorouracil and leucovorin (FOLFIRI Regimen)
After 200 mg/m^2 of intravenous leucovorin bolus and 400 mg/m^2 of intravenous push of 5-FU for 10 minutes, 5-FU was administered with an initial dose of 2,500 mg/m^2 every two weeks for 46-hours through a battery-operated pump, except in case of DPD significant mutation, in which case the initial dose of 5-FU in 46 hours continuous infusion was decreased by 50%.
Irinotecan was administered before 5-FU for 2 hours and the initial dose was 180 mg/m^2 without reduction for UGT 1A1 7/7 genotype group.
Treatment was continued until documented progression.
Statistical analysis used the chi2 test, linear regression analysis and the Kaplan-Meier method.

[2] = cited from earlier work
[3] = patients treated by 5-FU; cited from earlier work
[4] = subject with normal DPD enzymatic activity

## O=c1[nH]cc(F)c(=O)[nH]1 [5-FU, 5-fluorouracile]
[1]
  neutropenia grade 4, number observed: 1
[2]; 5-FU continuous infusion
  time to plateau of plasmatic levels after beginning of continuous infusion: about 1 hour
[2]; human, in vivo
  half-life in blood: very short
[2]; interindividual
  5-FU clearance variation depending on the subject: 6 to 10 factor
[2]; perfusion during several hours or days
  clearance multiplication from bolus administration to continued perfusion: 10 factor
[2]; [4]
  administered 5-FU available for the anabolic pathway: 20%
  administered 5-FU eliminated by DPD in the catabolic pathway: about 80%
[3]
  death due to polyvisceral toxicity: 0.8 % of treated patients
  severe grade 3-4 toxicity: 20-25%
  very early polyvisceral toxicity: 5-8 % of patients
